Results as given in patent publication US20260317320A1, “C5AR1 ANTAGONISTS AND USES THEREOF” (Vanqua Bio, Inc., priority 2022, published 2026).
Like-named read-outs stand apart in the source and are kept apart here.

Columns and labels:
[1] = target: T1, complement C5a receptor 1 (C5aR1) (Homo sapiens, UniProt P21730); assay: β-arrestin recruitment via C5aR1 activation in live CHO-K1 cells (PathHunter), antagonist mode; format: cell-based; settings: antagonist mode; recombinant hC5a (EC90) as competing natural agonist; live CHO-K1 cells; read-out: [Antagonist] B-arrestin2 recruitment: Average IC50
T1 construct: β-galactosidase fragment (PathHunter enzyme complementation); host or cells: CHO-K1 (PathHunter CHO-K1 C5aR1 β-arrestin cell line)
T1 sequence (P21730 1-350): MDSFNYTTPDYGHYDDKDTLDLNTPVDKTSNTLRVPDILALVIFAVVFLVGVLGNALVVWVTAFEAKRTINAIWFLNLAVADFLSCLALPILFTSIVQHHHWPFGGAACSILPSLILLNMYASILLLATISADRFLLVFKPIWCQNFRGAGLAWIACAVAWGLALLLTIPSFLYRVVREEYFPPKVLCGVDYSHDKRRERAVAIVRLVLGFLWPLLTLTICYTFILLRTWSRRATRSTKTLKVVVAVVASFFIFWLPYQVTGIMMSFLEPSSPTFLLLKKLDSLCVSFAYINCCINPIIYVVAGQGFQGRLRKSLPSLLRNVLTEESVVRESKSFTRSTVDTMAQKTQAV
Procedure, shortened: (§1)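 Live CHO-K1 cells expressing β-galactosidase fragments fused to β-arrestin and C5aR1; recruitment is read by fragment complementation. In agonist mode compounds are tested alone; in antagonist mode they compete against recombinant hC5a at EC90. IC50 reported in binned ranges.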

[2] = target: T1, complement C5a receptor 1 (C5aR1); assay: β-arrestin recruitment via C5aR1 activation in live CHO-K1 cells (PathHunter), agonist mode; format: cell-based
Procedure, shortened: as §1

Row | IC50 [1] [µM] | [Agonist] B-arrestin2 recruitment: Average EC50 (nM) [2] | [Agonist] B-arrestin2 recruitment: Average EC50 (nM) ([2]; at 10 μM) | Structure (SMILES)
1 | < 0.5 |  | Non-Active at 10 μM | Cc1cnc2cc([C@H]3CC[C@H](c4c(F)cccc4F)CC3)c(=O)n(Cc3ncccc3C(C)(F)F)c2n1 [compound 250, 5-((3-(1,1-Difluoroethyl)pyridin-2-yl)methyl)-7-((1r,4r)-4-(2,6-difluorophenyl)cyclohexyl)-3-methylpyrido[2,3-b]pyrazin-6(5H)-one]
2 | < 0.5 |  | Non-Active at 10 μM | Cc1cnc2cc([C@H]3CC[C@H](c4c(C)cccc4F)CC3)c(=O)n(Cc3nccnc3C3CC3)c2n1 [compound 221, 5-((3-Cyclopropylpyrazin-2-yl)methyl)-7-((1r,4r)-4-(2-fluoro-6-methylphenyl)cyclohexyl)-3-methylpyrido[2,3-b]pyrazin-6(5H)-one]
3 | < 0.5 | Non-Active |  | Cc1cnc2cc([C@H]3CC[C@H](c4c(C)cccc4F)CC3)c(=O)n(Cc3ncccc3OC3CC3)c2n1 [compound 238, 5-((3-Cyclopropoxypyridin-2-yl)methyl)-7-((1r,4r)-4-(2-fluoro-6-methylphenyl)cyclohexyl)-3-methylpyrido[2,3-b]pyrazin-6(5H)-one]
4 | < 0.5 | Non-Active |  | Cc1ccc2cc([C@H]3CC[C@H](c4c(C)ccnc4F)CC3)c(=O)n(Cc3ncccc3CC(F)(F)F)c2n1 [compound 259, 7-Methyl-3-[(1r,4r)-4-(2-fluoro-4-methyl-3-pyridyl)cyclohexyl]-1-{[3-(2,2,2-trifluoroethyl)-2-pyridyl]methyl}-1,8-diaza-2(1H)-naphthalenone]
5 | 0.5 to 5 |  | Non-Active at 10 μM | Cc1cnc2cc(C3CCN(c4c(F)ccc5c4cnn5C)CC3)c(=O)n(Cc3ncccc3C(F)(F)F)c2n1 [compound 184, 7-(1-(5-Fluoro-1-methyl-1H-indazol-4-yl)piperidin-4-yl)-3-methyl-5-((3-(trifluoromethyl)pyridin-2-yl)methyl)pyrido[2,3-b]pyrazin-6(5H)-one]
6 | 5 to 100 | Non-Active |  | Cc1cnc2cc([C@H]3CC[C@H](c4c(F)cnc5c4cnn5C)CC3)c(=O)n(Cc3ncccc3C(F)(F)F)c2n1 [compound 266, 3-Methyl-7-[(1r,4r)-4-(5-fluoro-1-methyl-1H-1,2,7-triazainden-4-yl)cyclohexyl]-5-{[3-(trifluoromethyl)-2-pyridyl]methyl}-1,4,5-triaza-6(5H)-naphthalenone]
7 | < 0.5 |  | Non-Active at 10 μM | CCCc1cnc2cc([C@H]3CC[C@H](c4c(C)cccc4F)CC3)c(=O)n(Cc3ncccc3C(F)(F)F)c2n1 [compound 227, 7-((1r,4r)-4-(2-Fluoro-6-methylphenyl)cyclohexyl)-3-propyl-5-((3-(trifluoromethyl)pyridin-2-yl)methyl)pyrido[2,3-b]pyrazin-6(5H)-one]

The next lines start with the compound.

Row | Structure (SMILES) | IC50 [1] [µM] | [Agonist] B-arrestin2 recruitment: Average EC50 (nM) [2] | [Agonist] B-arrestin2 recruitment: Average EC50 (nM) ([2]; at 10 μM)
8 | Cc1cnc2cc(C3CCN(c4c(C)ccnc4F)CC3)c(=O)n(Cc3ncccc3C(F)F)c2n1 [compound 141, 5-((3-(Difluoromethyl)pyridin-2-yl)methyl)-7-(1-(2-fluoro-4-methylpyridin-3-yl)piperidin-4-yl)-3-methylpyrido[2,3-b]pyrazin-6(5H)-one] | < 0.5 | Non-Active | 
9 | Cc1cnc2cc(C3CCN(c4cnsc4C)CC3)c(=O)n(Cc3ncccc3C(F)(F)F)c2n1 [compound 145, 3-Methyl-7-(1-(5-methylisothiazol-4-yl)piperidin-4-yl)-5-((3-(trifluoromethyl)pyridin-2-yl)methyl)pyrido[2,3-b]pyrazin-6(5H)-one] | < 0.5 | Non-Active | 
10 | Cc1ccc2nc(C3CCN(c4c(C)cccc4F)CC3)c(=O)n(Cc3ncccc3C(F)(F)F)c2c1 [142A, 3-(1-(2-Fluoro-6-methylphenyl)piperidin-4-yl)-7-methyl-1-((3-(trifluoromethyl)pyridin-2-yl)methyl)quinoxalin-2(1H)-one] | > 100 | Non-Active | 
11 | Cc1cnc2cc(C3CCN(c4c(C)cccc4F)CC3)c(=O)n(Cc3ncccc3OC(F)(F)F)c2n1 [compound 68, 7-(1-(2-Fluoro-6-methylphenyl)piperidin-4-yl)-3-methyl-5-((3-(trifluoromethoxy)pyridin-2-yl)methyl)pyrido[2,3-b]pyrazin-6(5H)-one] | < 0.5 | Non-Active | 
12 | Cc1cnc2cc([C@H]3CC[C@H](c4c(C)cccc4F)C3)c(=O)n(Cc3nccnc3C)c2n1 [172C, 7-((1S,3S)-3-(2-Fluoro-6-methylphenyl)cyclopentyl)-3-methyl-5-((3-methylpyrazin-2-yl)methyl)pyrido[2,3-b]pyrazin-6(5H)-one] | < 0.5 |  | Non-Active at 10 μM
13 | Cc1cccc(F)c1[C@@H]1CC[C@@H](c2cc3nccnc3n(Cc3ncccc3C(F)(F)F)c2=O)C1 [200D, 7-((1R,3R)-3-(2-Fluoro-6-methylphenyl)cyclopentyl)-5-((3-(trifluoromethyl)pyridin-2-yl)methyl)pyrido[2,3-b]pyrazin-6(5H)-one] | < 0.5 |  | Non-Active at 10 μM
14 | Cc1cnc2cc(N3CCN(c4c(C)cccc4F)CC3)c(=O)n(Cc3ncccc3OC(F)(F)F)c2n1 [compound 124, 7-(4-(2-Fluoro-6-methylphenyl)piperazin-1-yl)-3-methyl-5-((3-(trifluoromethoxy)pyridin-2-yl)methyl)pyrido[2,3-b]pyrazin-6(5H)-one] | < 0.5 | Non-Active | 
15 | Cc1ccnc(F)c1N1CCC(c2cc3nccnc3n(Cc3ccccc3C(F)(F)F)c2=O)CC1 [compound 31, 7-(1-(2-Fluoro-4-methylpyridin-3-yl)piperidin-4-yl)-5-(2-(trifluoromethyl)benzyl)pyrido[2,3-b]pyrazin-6(5H)-one] | < 0.5 | Non-Active | 
16 | Cc1cnc2cc([C@H]3CC[C@H](c4c(C)ccnc4F)CC3)c(=O)n(Cc3nccnc3C(F)F)c2n1 [146B, 5-((3-(Difluoromethyl)pyrazin-2-yl)methyl)-7-((1r,4r)-4-(2-fluoro-4-methylpyridin-3-yl)cyclohexyl)-3-methylpyrido[2,3-b]pyrazin-6(5H)-one] | 0.5 to 5 |  | Non-Active at 10 μM
17 | O=c1c(C2CCN(c3ccccc3C(F)(F)F)CC2)cc2nccnc2n1Cc1ccccc1F [compound 10, 5-(2-fluorobenzyl)-7-(1-(2-(trifluoromethyl)phenyl)piperidin-4-yl)pyrido[2,3-b]pyrazin-6(5H)-one] | < 0.5 | Non-Active | 
18 | Cc1cccc(F)c1N1CCC(c2cc3nccnc3n(Cc3ccccc3F)c2=O)CC1 [compound 35, 7-(1-(2-Fluoro-6-methylphenyl)piperidin-4-yl)-5-(2-fluorobenzyl)pyrido[2,3-b]pyrazin-6(5H)-one] | < 0.5 | Non-Active | 
19 | O=c1c(C2CCN(c3ccccc3C(F)(F)F)CC2)cc2nccnc2n1Cc1ncccc1C(F)(F)F [compound 38, 7-(1-(2-(Trifluoromethyl)phenyl)piperidin-4-yl)-5-((3-(trifluoromethyl)pyridin-2-yl)methyl)pyrido[2,3-b]pyrazin-6(5H)-one] | < 0.5 | Non-Active | 
